Data from patent publication US20220096485A1, “FUNCTIONALIZED PYRANO[2,3-D]PYRIMIDIN-7-ONE DERIVATIVES AND METHODS FOR THEIR PREPARATION AND USE” (The Texas A&M University System, priority 2016, published 2022).

biological target: Abelson kinase 2 (ABL2) (Homo sapiens, UniProt P42684); assay: Eurofins Arg (ABL2) Human TK Kinase Binding Assay
Sequence (P42684 whole entry): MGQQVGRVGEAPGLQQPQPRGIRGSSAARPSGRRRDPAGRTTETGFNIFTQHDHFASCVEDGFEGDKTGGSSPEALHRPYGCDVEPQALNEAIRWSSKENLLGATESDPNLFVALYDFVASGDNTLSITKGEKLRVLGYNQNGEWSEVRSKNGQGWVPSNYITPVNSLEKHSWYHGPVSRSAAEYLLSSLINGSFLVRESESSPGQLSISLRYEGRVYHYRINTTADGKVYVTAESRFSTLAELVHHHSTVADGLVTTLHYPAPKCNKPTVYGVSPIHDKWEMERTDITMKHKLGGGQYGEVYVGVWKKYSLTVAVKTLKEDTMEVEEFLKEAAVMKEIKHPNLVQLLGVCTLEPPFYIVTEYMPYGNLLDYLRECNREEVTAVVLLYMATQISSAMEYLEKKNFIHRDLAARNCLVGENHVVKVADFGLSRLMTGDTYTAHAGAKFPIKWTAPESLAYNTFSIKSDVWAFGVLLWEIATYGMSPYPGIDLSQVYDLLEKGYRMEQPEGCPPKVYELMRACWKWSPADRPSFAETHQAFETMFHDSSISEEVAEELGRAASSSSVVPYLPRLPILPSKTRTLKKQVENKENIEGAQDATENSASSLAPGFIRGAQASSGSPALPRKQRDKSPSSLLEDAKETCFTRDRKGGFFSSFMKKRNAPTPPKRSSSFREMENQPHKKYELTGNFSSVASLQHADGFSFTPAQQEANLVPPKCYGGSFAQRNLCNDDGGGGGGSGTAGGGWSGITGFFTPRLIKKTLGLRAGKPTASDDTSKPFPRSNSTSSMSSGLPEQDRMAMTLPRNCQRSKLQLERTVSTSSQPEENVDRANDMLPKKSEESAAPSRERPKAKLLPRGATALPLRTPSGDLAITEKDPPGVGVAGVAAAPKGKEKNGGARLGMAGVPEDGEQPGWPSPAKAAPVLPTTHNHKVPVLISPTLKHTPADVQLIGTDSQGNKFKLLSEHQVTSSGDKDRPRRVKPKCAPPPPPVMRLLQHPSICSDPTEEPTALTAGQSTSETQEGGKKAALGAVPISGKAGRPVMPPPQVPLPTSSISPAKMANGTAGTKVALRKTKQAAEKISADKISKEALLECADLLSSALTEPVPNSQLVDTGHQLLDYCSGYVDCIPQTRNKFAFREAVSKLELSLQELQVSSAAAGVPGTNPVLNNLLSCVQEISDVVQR

Cc1cc(Nc2ncc3cc(-c4c(Cl)cccc4Cl)c(=O)oc3n2)ccc1F [Compound 12a, 2-(4-Fluoro-3-methylphenylamino)-6-(2,6-dichlorophenyl)-7H-pyrano[2,3-d]pyrimidin-7-one] and CSc1cccc(Nc2ncc3cc(-c4c(Cl)cccc4Cl)c(=O)oc3n2)c1 [Compound 12b, 2-(3-(Methylthio)phenylamino)-6-(2,6-dichlorophenyl)-7H-pyrano[2,3-d]pyrimidin-7-one] are within 1.5-fold of each other in Kd: 3.9 nM for the first, 3.8 nM for the second.

First: Nc1cccc(Nc2ncc3cc(-c4c(Cl)cccc4Cl)c(=O)oc3n2)c1 [Compound 12c, 2-(3-Aminophenylamino)-6-(2,6-dichlorophenyl)-7H-pyrano[2,3-d]pyrimidin-7-one]
Second: N#Cc1cccc(Nc2ncc3cc(-c4c(Cl)cccc4Cl)c(=O)oc3n2)c1 [Compound 12d, 3-(6-(2,6-Dichlorophenyl)-7-oxo-7H-pyrano[2,3-d]pyrimidin-2-ylamino)benzonitrile]
The Kd of the first is 4.1-fold lower: 1.1 nM for the first, 4.5 nM for the second.

COc1cccc(Nc2ncc3cc(-c4c(Cl)cccc4Cl)c(=O)oc3n2)c1 [Compound 12e, 6-(2,6-Dichlorophenyl)-2-(3-methoxyphenylamino)-7H-pyrano[2,3-d]pyrimidin-7-one] and CC(=O)Nc1cccc(Nc2ncc3cc(-c4c(Cl)cccc4Cl)c(=O)oc3n2)c1 [Compound 12g, N-(3-(6-(2,6-Dichlorophenyl)-7-oxo-7H-pyrano[2,3-d]pyrimidine-2-ylamino)-phenyl)-acetamide] are within 1.5-fold of each other in Kd: 1.3 nM for the first, 1.1 nM for the second.

First: CN(C)c1ccc(Nc2ncc3cc(-c4c(Cl)cccc4Cl)c(=O)oc3n2)cc1 [Compound 12f, 6-(2,6-Dichlorophenyl)-2-(4-(dimethylamino)phenylamino)-7H-pyrano[2,3-d]pyrimidine-7-one]
Second: Cc1cccc(C)c1-c1cc2cnc(Nc3cccc(N)c3)nc2oc1=O [Compound 19a, 2-(3-Aminophenylamino)-6-(2,6-dimethylphenyl)-7H-pyrano[2,3-d]pyrimidine-7-one]
The Kd of the first is 5.3-fold higher: 6.9 nM for the first, 1.3 nM for the second.

First: CC(=O)Nc1cccc(Nc2ncc3cc(-c4c(C)cccc4C)c(=O)oc3n2)c1 [Compound 19b, N-(3-(6-(2,6-Dimethylphenyl)-7-oxo-7H-pyrano[2,3-d]pyrimidine-2-ylamino)phenyl)-acetamide]
Second: Nc1cccc(Nc2ncc3cc(-c4ccccc4)c(=O)oc3n2)c1 [Compound 19c, 2-(3-Aminophenylamino)-6-phenyl-7H-pyrano[2,3-d]pyrimidin-7-one]
The Kd of the first is 100-fold lower: 1.3 nM for the first, 130 nM for the second.
